US20260356860A1, “2-SUBSTITUTED 3,4A,5,7,8,8A-HEXAHYDRO-4H-THIOPYRANO[4,3-DJPYRIMIDIN-4-ONES FOR WOUND TREATMENT” (priority 2022, published 2026)

What was measured:
[1] = test system: healed wound sites; assay: Physical properties of healed wounds, summary; format: in vivo, porcine; details: compared to the control
Description: (§1) Additional tests were performed including elasticity (Table 12); max force (Table 13); tensile strength (strain) (Table 14); energy peak (Table 15); rete-ridge formation; and collagen organization (plane polarized light) (FIG. 24) of the healed wound sites, described as follows.
Wounds treated with 0.9% saline provided the least wound healing integrity for elasticity, max force, strain, and energy peak parameters.

[2] = test system: closed excisional wounds; assay: Collagen organization (plane polarized light) of closed excisional wounds; format: in vivo, Yucatan Miniature Swine
Description: as §1
Regarding collagen organization, the number of wounds indicating collagen infiltration into the scar were identified by polarized imaging (plane polarized light).

[3] = test system: C. acnes (derived from ATCC ® 11827 ™); assay: Bacteriostasis, log reduction; format: cell-based

| SMILES | wound healing integrity (physical properties of the healed wound site) [1] | number of wounds indicating collagen infiltration into the scar [2] [wounds] | Average result ([3]; 24 h) | Log Reduction ([3]; 24 h) | Log Value ([3]; 24 h) | Average result ([3]; 72 h) | Log Reduction ([3]; 72 h) | Log Value ([3]; 72 h) |
| --- | --- | --- | --- | --- | --- | --- | --- | --- |
| O=c1[nH]c(-c2ccc(-c3ccc(B(O)O)cc3)cc2)nc2c1CSCC2 [Compound 10, (4′-(4-oxo-3,5,7,8-tetrahydro-4H-thiopyrano[4,3-d]pyrimidin-2-yl)-[1,1′-biphenyl]-4-yl)boronic acid] | greatest wound healing integrity | 7 |  |  |  |  |  |  |
| COC(=O)NCCOC(C)(C)c1ccc(-c2nc3c(c(=O)[nH]2)CSCC3)cc1 [Compound 18, methyl (2-((2-(4-(4-oxo-3,5,7,8-tetrahydro-4H-thiopyrano[4,3-d]pyrimidin-2-yl)phenyl)propan-2-yl)oxy)ethyl)carbamate] |  |  | 10.7 × 10^4 | 0.7 | 4.2 | 6.5 × 10^3 | 1.1 | 3.8 |
